Measured values reported in publication PMC13155568, “A plant-specific cytochrome b5–like protein is essential for phytosterol biosynthesis” (Science Advances, 2025).

Biological target: T1, CBR1 (Arabidopsis thaliana, UniProt Q9ZNT1)
T1 sequence (Q9ZNT1 1-281): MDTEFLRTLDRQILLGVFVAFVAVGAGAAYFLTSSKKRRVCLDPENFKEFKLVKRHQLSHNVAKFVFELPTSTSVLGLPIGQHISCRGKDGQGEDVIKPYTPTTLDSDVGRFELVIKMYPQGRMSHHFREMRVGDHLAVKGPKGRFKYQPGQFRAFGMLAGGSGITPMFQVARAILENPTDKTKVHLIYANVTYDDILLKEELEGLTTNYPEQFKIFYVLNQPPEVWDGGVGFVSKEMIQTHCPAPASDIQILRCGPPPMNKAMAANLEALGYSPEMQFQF
T1 sequence (O22704 22-121 partner limits assumed): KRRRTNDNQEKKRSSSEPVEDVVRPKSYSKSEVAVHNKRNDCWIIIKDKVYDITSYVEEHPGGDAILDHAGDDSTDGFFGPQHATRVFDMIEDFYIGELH
Assay: reduction of recombinant CB5LP followed by Soret shift
Type: biochemical
Settings: 100 uM NADH, 9 uM CB5LP as electron acceptor, Tris-HCl pH 7.5, room temperature

NC(=O)C1=CN([C@@H]2O[C@H](COP(=O)(O)OP(=O)(O)OC[C@H]3O[C@@H](n4cnc5c(N)ncnc54)[C@H](O)[C@@H]3O)[C@@H](O)[C@H]2O)C=CC1 [NADH]
reduction of recombinant CB5LP followed by Soret shift: CB5LP was effectively reduced by CBR1 in the presence of NADH
